Assay results published in ChEMBL document CHEMBL1201862, “PubChem BioAssay data set” (2004).
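Compound exposure: 48 hours, 5 concentrations, 96-well plates. GI50 marks 50% less growth.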 Active and inactive are the calls of the source. Rule as the data show it: active = GI50 up to about 1.1 µM and inactive = higher.

Assays:
Assay in all cases: NCI tumour cell line growth inhibition, 48 h
786-0 = system: 786-0
A549 = system: A549
CAKI-1 = system: CAKI-1
CCRF-CEM = system: CCRF-CEM
HOP-62 = system: HOP-62
KM12 = system: KM12
MDA-MB-435 = system: MDA-MB-435
NCI-H226 = system: NCI-H226
NCI-H522 = system: NCI-H522
OVCAR-3 = system: OVCAR-3
OVCAR-4 = system: OVCAR-4
OVCAR-5 = system: OVCAR-5
RXF 393 = system: RXF 393
SF-268 = system: SF-268
SF-295 = system: SF-295
SNB-19 = system: SNB-19
SR = system: SR
U-251 = system: U-251
UACC-257 = system: UACC-257
UACC-62 = system: UACC-62

SMILES	GI50 (786-0)	GI50 (A549)	GI50 (CAKI-1)	GI50 (CCRF-CEM)	GI50 (HOP-62)	GI50 (KM12)	GI50 (MDA-MB-435)	GI50 (NCI-H226)	GI50 (NCI-H522)	GI50 (OVCAR-3)	GI50 (OVCAR-4)	GI50 (OVCAR-5)	GI50 (RXF 393)	GI50 (SF-268)	GI50 (SF-295)	GI50 (SNB-19)	GI50 (SR)	GI50 (U-251)	GI50 (UACC-257)	GI50 (UACC-62)
O=C1c2ccccc2C(=O)N1/N=C1/SC(=N\c2ccccc2)/C(=N/c2ccccc2)N1c1ccccc1	11.4 µM (inactive)	> 21 µM (inactive)	> 100 µM (inactive)	> 51.3 µM (inactive)	> 45.6 µM (inactive)	> 38.8 µM (inactive)	> 100 µM (inactive)	> 71.3 µM (inactive)	97.7 µM (inactive)	> 100 µM (inactive)	> 100 µM (inactive)	> 100 µM (inactive)	4.47 µM (inactive)	> 100 µM (inactive)	26.4 µM (inactive)	> 90.4 µM (inactive)	> 31.6 µM (inactive)	24.9 µM (inactive)	> 100 µM (inactive)	> 95.5 µM (inactive)
Cc1cc2cc3c(C)cc(=O)oc3c(C)c2o1 [TRIOXSALEN]	> 100 µM (inactive)	> 100 µM (inactive)	> 100 µM (inactive)	> 100 µM (inactive)	> 100 µM (inactive)	> 100 µM (inactive)	> 100 µM (inactive)	> 100 µM (inactive)	> 100 µM (inactive)	> 100 µM (inactive)	> 100 µM (inactive)	> 100 µM (inactive)	> 100 µM (inactive)	> 100 µM (inactive)	> 100 µM (inactive)	> 100 µM (inactive)	> 100 µM (inactive)	> 100 µM (inactive)	> 100 µM (inactive)	> 100 µM (inactive)
O=C1C[C@H](Sc2ccccc2)C2(OCCO2)[C@@H](Sc2ccccc2)C1	2.82 µM (inactive)	1.87 µM (inactive)	3.1 µM (inactive)	0.282 µM (active)	3.27 µM (inactive)	1.79 µM (inactive)	2.25 µM (inactive)	2.31 µM (inactive)	0.316 µM (active)	2.16 µM (inactive)	5.07 µM (inactive)	3.35 µM (inactive)	1 µM (active)	1.87 µM (inactive)	4.33 µM (inactive)	11 µM (inactive)	0.322 µM (active)	1.78 µM (inactive)	1.8 µM (inactive)	2.01 µM (inactive)
